Measurements from patent US7019026B1, “Modulators of Protein Tyrosine Phosphatases (PTPases)” (Novo Nordisk A/S, priority 1999, dated 2006).

Target: T1, truncated form of PTP1 B (corresponding to the first 321 amino acids) (Homo sapiens, UniProt P18031)
T1 construct: truncated form of PTP1 B (corresponding to the first 321 amino acids); made in house; host or cells: E. coli
T1 sequence (P18031 1-321): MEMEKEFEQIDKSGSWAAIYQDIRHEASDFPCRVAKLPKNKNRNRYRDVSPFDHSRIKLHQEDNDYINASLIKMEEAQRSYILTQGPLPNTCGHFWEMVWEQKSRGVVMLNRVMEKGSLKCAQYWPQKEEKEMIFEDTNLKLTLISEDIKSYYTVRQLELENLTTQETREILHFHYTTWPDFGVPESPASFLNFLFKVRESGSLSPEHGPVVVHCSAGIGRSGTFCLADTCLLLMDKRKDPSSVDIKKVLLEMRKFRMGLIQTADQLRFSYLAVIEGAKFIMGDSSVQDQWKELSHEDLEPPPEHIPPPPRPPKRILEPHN
Assay: Inhibition of PTP1B (p-nitrophenyl phosphate substrate, enzyme kinetic analysis)
Format: biochemical
Conditions: truncated PTP1B expressed in E. coli; substrate p-nitrophenyl phosphate 0.16 to 10 mM; 50 mM HEPES pH 7.0; 60 minutes; read-out: PTP1B K1 values
Protocol: The compounds are evaluated for biological activity with a truncated form of PTP1 B (corresponding to the first 321 amino acids), which was expressed in E. coli and purified to apparent homogeneity using published procedures well-known to those skilled in the art. The enzyme reactions are carried out using standard conditions essentially as described by Burke et al. (Biochemistry 35; 15989–15996 (1996)). The assay conditions are as follows. Appropriate concentrations of the compounds of the invention are added to the reaction mixtures containing different concentrations of the substrate, p-nitrophenyl phosphate (range: 0.16 to 10 mM—final assay concentration). The buffer used was 50 mM HEPES pH 7.0, 100 mM sodium chloride, 0.1% (w/v) bovine serum albumin, 5 mM glutathione, and 1 mM EDTA.). The reaction was started by addition of the enzyme and carried out in microtiter plates at […] for 60 minutes. The reactions are stopped by addition of NaOH. The enzyme activity was determined by measurement of the absorbance at 405 nm with appropriate corrections for absorbance at 405 nm of the compounds and p-nitrophenyl phosphate. The data are analyzed using nonlinear regression fit to classical Michaelis Menten enzyme kinetic models. Inhibition is expressed as Ki values in μM.

Ki | SMILES
1500 nM | O=C(O)C(=O)Nc1sc2c(c1C(=O)O)CC(CN1C(=O)c3cccc(O)c3C1=O)OC2 (centres unmarked) [Example 4, 5-(4-Hydroxy-1,3-dioxo-1,3-dihydro-isoindol-2-ylmethyl)-2-(oxalyl-amino)-4,7-dihydro-5-H-thieno[2,3-c]pyran-3-carboxylic acid]
7000 nM | O=C(O)C(=O)Nc1sc2c(c1C(=O)O)CCOC2CN1C(=O)c2cccc(O)c2C1=O (centres unmarked) [Example 25, 7-(4-Hydroxy-1,3-dioxo-1,3-dihydro-isoindol-2-ylmethyl)-2-(oxalyl-amino)-4,7-dihydro-5H-thieno[2,3-c]pyran-3-carboxylic acid]
1500 nM | O=C(O)C(=O)Nc1sc2c(c1C(=O)O)CCOC2CN1C(=O)S/C(=C\c2c[nH]cn2)C1=O (centres unmarked) [Example 41, 7-(5-(1H-imidazol-4(5)-ylmethylene)-2,4-dioxo-thiazolidin-3-ylmethyl)-2-(oxalyl-amino)-4,7-dihydro-5H-thieno[2,3-c]pyran-3-carboxylic acid]
9700 nM | O=C(O)C(=O)Nc1sc2c(c1C(=O)O)CCOC2CN1C(=O)CSC1=O (centres unmarked) [Example 23, 7-(2,4-Dioxo-Thiazolidin-3-ylmethyl)-2-(oxalyl-amino)-4,7-dihydro-5H-thieno[2,3-c]pyran-3-carboxylic acid]
1200 nM | COc1ccc2c(c1)C(=O)N(CC1OCCc3c1sc(NC(=O)C(=O)O)c3C(=O)O)C2=O (centres unmarked) [Example 26, 5-(5-Methoxy-1,3-dioxo-1,3-dihydro-isoindol-2-ylmethyl)-2-(oxalyl-amino)-4,7-dihydro-5H-thieno[2,3-c]pyran-3-carboxylic acid]
1400 nM | O=C(O)C(=O)Nc1sc2c(c1C(=O)O)CCOC2CN1C(=O)C=C(c2ccccc2)S1(=O)=O (centres unmarked) [Example 49, 2-(Oxalyl-amino)-7-(1,1,3-trioxo-5-phenyl-1,3-dihydro-isothiazol-2-ylmethyl)-4,7-dihydro-5H-thieno[2,3-c]pyran-3-carboxylic acid]
3000 nM | O=C(O)C(=O)Nc1sc2c(c1C(=O)O)CCOC2COC1=NS(=O)(=O)C(c2ccccc2)=C1 (centres unmarked) [Example 50, 7-(1,1-Dioxo-5-phenyl-1H-isothiazol-3-yloxymethyl)-2-(oxalyl-amino)-4,7-dihydro-5H-thieno[2,3-c]pyran-3-carboxylic acid]
3600 nM | O=C(O)C(=O)Nc1sc2c(c1C(=O)O)CCOC2CN1C(=O)c2cc3c(cc2C1=O)OCO3 (centres unmarked) [Example 27]
800 nM | O=C(O)C(=O)Nc1sc2c(c1C(=O)O)CCOC2COC1=NS(=O)(=O)c2ccccc21 (centres unmarked) [Example 47]
7500 nM | CC(=O)Nc1ccc(/C=C2\SC(=O)N(CC3OCCc4c3sc(NC(=O)C(=O)O)c4C(=O)O)C2=O)cc1 (centres unmarked) [Example 39, 7-(5-(4-Acetylamino-benzylidene)-2,4-dioxo-thiazolidin-3-ylmethyl)-2-(oxalyl-amino)-4,7-dihydro-5H-thieno[2,3-c]pyran-3-carboxylic acid]
8200 nM | O=C(O)C(=O)Nc1sc2c(c1C(=O)O)CCOC2CNC(=O)c1ccc2c(c1)OCO2 (centres unmarked) [Example 28, 7-(((Benzo[1,3]dioxole-5-carbonyl)amino)methyl)-2-(oxalyl-amino)-4,7-dihydro-5H-thieno[2,3-c]pyran-3-carboxylic acid]
2300 nM | O=C(O)C(=O)Nc1sc2c(c1C(=O)O)CCOC2CN1C(=O)c2ccccc2S1(=O)=O (centres unmarked) [Example 46, 2-(Oxalyl-amino)-7-(1,1,3-trioxo-1,3-dihydro-1H-benzo[d]isothiazol-2-ylmethyl)-4,7-dihydro-5H-thieno[2,3-c]pyran-3-carboxylic acid]
1300 nM | O=C(O)C(=O)Nc1sc2c(c1C(=O)O)CCOC2Cn1c(=O)c2ccccc2[s+]1[O-] (centres unmarked) [Example 55, 7-(1,3-Dioxo-1,3-dihydro-benzo[d]isothiazol-2-ylmethyl)-2-(oxalyl-amino)-4,7-dihydro-5H-thieno[2,3-c]pyran-3-carboxylic acid]

Tested on: not given
Assay: not given
Conditions: not given

melting point | SMILES
> 250 °C | O=C(O)C(=O)Nc1sc2c(c1C(=O)O)CCOC2CN1C(=O)S/C(=C\c2c[nH]cn2)C1=O (centres unmarked) [Example 41, 7-(5-(1H-imidazol-4(5)-ylmethylene)-2,4-dioxo-thiazolidin-3-ylmethyl)-2-(oxalyl-amino)-4,7-dihydro-5H-thieno[2,3-c]pyran-3-carboxylic acid]
